The experiment deals with zygomycetes, ascomycetes and bacteria/yeast. The experiment is described as follows: Cotton burr substrate disinfection, all contaminant types. The settings on record: 2.5 mL Tween 80 added to each PEO concentration; Fisher's Exact Test p=0.318, 0.499, 0.448 (zygomycetes, ascomycetes, bacteria/yeast). Type of experiment: cell-based. The method, then:
Eight plant essential oils (cinnamon, clove, lemongrass, oregano, savory, spearmint, tea tree and thyme) were prepared with tap water in 600 ml Pyrex glass beakers in the following volumetric concentrations: 0.1, 0.5, 1.0, 1.5, 2.0% [v:v]. Twenty-four grams of a propriety cotton burr substrate was placed in a 25×25 cm square of tule mesh tied with a rubber band to make one bundle. Each concentration was tested in replicates of 5, by submersing each bundle in a beaker containing one of the plant essential (PEO) concentrations for three hours. Each beaker was placed under constant magnetic stirring at 300 rpm, to maintain the oil emulsion during the exposure period.
The bundle was then opened within a laminar flow hood and three pieces of cotton burrs were transferred to five Petri plates each of Potato Dextrose Agar (PDA) and Tryptic Soy Agar (TSA).
The submersion process was repeated for each PEO at the five concentrations over a period of three weeks. The number of ascomycete, zygomycete and bacteria/yeast colonies were recorded for each plate every 3 days for 15 days. […]
Example 2 followed the same procedure as Example 1, but examined the efficacy of the five selected oil concentrations at the following exposure intervals: 30, 60, and 120 minutes. This analysis determined the minimum exposure time required for microbial inhibition on cotton burr substrate. […]

In the case of `CCCCCCCC/C=C\CCCCCCCC(=O)OCCOCC(OCCO)C1OCC(OCCO)C1OCCO` (stereo not shown) [Tween 80], the “frequency of contamination on substrate treated with the surfactant versus non-treated substrate” value is reported as “no significant difference”.

For the origin of these results see patent publication US20120225471A1, “Method for producing a composite material” (priority 2011, published 2012).
